Results on 1 compound are retold here after patent US8492391B2, “Substituted 6-(2-hydroxybenzylamino)purine derivatives, their use as medicaments and compositions containing these derivatives” (Univerzita Palackeho V Olomouci, priority 2009, dated 2013).

Data set [1] deals with HOS (human osteogenic sarcoma). The experiment in a line: Calcein AM cytotoxicity assay, HOS. The following applies: Homo sapiens, read-out: Cytotoxic activity IC50 (μM) HOS. It is filed as cell-based. An excerpt: (§1) Cytotoxicity of the compounds is the major property determining their anticancer effect in vivo. One of the parameters used, as the basis for cytotoxicity assays, is the metabolic activity of viable cells. For example, a microtiter assay, which uses the Calcein AM, is now widely used to quantitate cell proliferation and cytotoxicity. For instance, this assay is used in drug screening programs and in chemosensitivity testing. Because only metabolically active cells cleave Calcein AM, these assays detect viable cells exclusively. The quantity of cleaved Calcein AM corresponds to the number of vital cells in the culture. We have been using the following cell lines: MCF7 (human breast adenocarcinoma), K562 (human chronic myelogenous leukaemia), HOS (human osteogenic sarcoma), HeLa (human cervical carcinoma), HL 60 (human promyelocytic leukaemia), G 361 (human malignant melanoma), CEM (human lymphoblastoid leukaemia). All cell lines were grown in DMEM medium (Gibco BRL) supplemented with 10% (v/v) fetal bovine serum and L-glutamine and maintained at 37° C. in a humidified atmosphere with 5% CO2. For cytotoxicity assays, 10^4 cells were seeded into each well of 96 well plate, allowed to stabilize for at least 2 h and then tested compounds were added at various concentrations ranging from 100 to 0.1 μM in triplicates. Three days after drug addition Calcein AM solution (Molecular Probes) was added and let to enter the cells for 1 hour. Fluorescence of viable cells was quantified using Fluoroskan Ascent (Microsystems).

A further data set deals with T1, CDK2/cyclin E (Homo sapiens, UniProt P24941).
T1 construct: made in house; host or cells: Sf9 insect cells, baculovirus co-infection
The experiment in a line: CDK2/cyclin E kinase inhibition assay. The class given is biochemical. The method, then: (§2) Selected compounds were tested for CDK1/cyclin B, CDK2/cyclin E, CDK5/p25, CDK7/cyclin H and CDK9/cyclin T inhibitory activity to determine the basic relationships between their structure and the inhibitory activity. Cdk/cyclin complexes were expressed in Sf9 cells co-infected with appropriate baculoviral construct. The cells were harvested 70 hours post infection in lysis buffer (50 mM Tris pH 7.4, 150 mM NaCl, 5 mM EDTA, 20 mM NaF, 1% Tween 20, protease inhibitors) for 30 min on ice and the soluble fraction was recovered by centrifugation at 14.000 g for […]. The protein extract was stored at −80° C. until use. The final point test system for kinase activity measurement was used to carry out experiments on the kinetics under linear conditions. […] ATP and tested compound in a final volume of 20 μl, all in reaction buffer: 50 mM Hepes pH 7.4, 10 mM MgCl2, 5 mM EGTA, 10 mM 2-glycerolphosphate, 1 mM NaF, 1 mM DTT and protease inhibitors. After 30 min, the incubations were stopped by adding 5% H3PO4 and then the proteins were separated by phosphocellulose binding. The measurement of kinase inhibition employed the digital imaging analyzer BAS 1800. The kinase activity was expressed as a percentage of maximum activity and the IC50 value was determined by graphic analysis. The kinase activity is expressed as a percentage of maximum activity (FIG. 1).

A further data set addresses T2, CDK9/cyclin T (Homo sapiens, UniProt P50750).
T2 construct: made in house; host or cells: Sf9 insect cells, baculovirus co-infection
The experiment in a line: CDK9/cyclin T kinase inhibition assay. The class given is biochemical. The following applies: kinase inhibitory activity, 15 μM ATP, (YSPTSPS)3 peptide substrate. The method, then:
as §2

The next data set relates to A549 lung adenocarcinoma. The experiment in a line: Human xenograft model of A549 lung adenocarcinoma. The class given is in vivo. The following applies: 150 mg/kg orally twice daily. The protocol:
More detailed analysis of anticancer activity of compound 128 was performed on human xenograft model of A549 lung adenocarcinoma transplanted to CD-1 SCID mice. Animals were transplanted subcutaneously with 2.10^6 A549 cells into lower back. Approximately one month later, majority of animals developed palpable tumors and therapy was initiated. The drug was given orally by gastric gavages in total volume of 200 μl/dose twice daily at dose 150 mg/kg in two chemotherapy cycles (Days 1-3 and 7-9). The compound 128 was solubilized in 5% N-methyl-2-pyrollidine, 30% polyethylene glycol 400, 65% tartar buffer (pH 3.0). Primary endpoint for analysis was reduction of tumor volume (10 mice/group), which was quantified by caliperation. Analysis of treated animals was preformed in comparison with vehicle treated mice. Body weight of experimental animals was also evaluated in parallel in order to reflect toxicity of the therapy. Comparative analysis of tumor volumes and body weights was performed using non-parametric t-test.

Data set [2] relates to MCF7 (human breast adenocarcinoma). The experiment in a line: Calcein AM cytotoxicity assay, MCF7. The class given is cell-based.
Excerpt: as §1

For data set [3], the system named is K562 (human chronic myelogenous leukaemia). The experiment in a line: Calcein AM cytotoxicity assay, K562. It is filed as cell-based. The following applies: Homo sapiens, read-out: Cytotoxic activity IC50 (μM) K562.
Excerpt: as §1

Another data set deals with p53 in RPMI-8226 cells. The experiment in a line: Immunoblotting in RPMI-8226 cells with temperature-sensitive p53 (E285K) at permissive and restrictive temperature. The class given is cell-based, human. The method, then: For immunoblotting, cell were detached with rubber policeman and washed three times with ice-cold PBS and lysed in buffer (50 mM Tris, pH 7.4, 250 mM NaCl, 5 mM EDTA, 50 mM NaF, 1 mM Na3VO4, 1% Nonidet P40) containing mixture of protease and phosphatase inhibitors (Sigma-Aldrich, USA). 20 μg of total proteins were separated by SDS-polyacrylamide gel electrophoresis (SDS-PAGE) and transferred onto nitrocellulose membranes. Membranes were blocked in 5% milk and 0.1% Tween 20 in PBS and probed overnight with specific monoclonal antibodies or rabbit polyclonal sera. […] All primary antibodies were diluted in PBS containing 5% powdered milk; 0.1% Tween 20. Peroxidase conjugated rabbit anti-mouse immunoglobulin or porcine anti-rabbit immunoglobulin antisera (DAKO, Denmark) were used as the secondary antibodies and visualised with ECL reagents (Amersham-Pharmacia, Little Chalfont, UK).
Then, we also determined effect of the compounds on the cell lines expressing some temperature-sensitive mutants of p53. For example, in BT474 and RPMI-8226 cells bearing temperature-sensitive mutant of p53 (E285K), p53 protein switches between mutant and wild-type conformation in a temperature-dependent manner. At restrictive (37° C.) temperature mutated p53 protein is expressed, while after shift to a permissive (30° C.) temperature p53 is folded correctly and functional. To analyze the functional involvement of p53 in the efficiency of the treatment with the compounds, we cultivated RPMI-8226 cells independently at two different temperatures (restrictive or permissive), and exposed them to increasing doses of selected compounds. The cell lysates were prepared and the levels of cell cycle regulators were analysed by immunoblotting.
On the technique in general: In western blotting, separated proteins are transferred to a membrane and probed.

T2 sequence (P50750 whole entry, species assumed): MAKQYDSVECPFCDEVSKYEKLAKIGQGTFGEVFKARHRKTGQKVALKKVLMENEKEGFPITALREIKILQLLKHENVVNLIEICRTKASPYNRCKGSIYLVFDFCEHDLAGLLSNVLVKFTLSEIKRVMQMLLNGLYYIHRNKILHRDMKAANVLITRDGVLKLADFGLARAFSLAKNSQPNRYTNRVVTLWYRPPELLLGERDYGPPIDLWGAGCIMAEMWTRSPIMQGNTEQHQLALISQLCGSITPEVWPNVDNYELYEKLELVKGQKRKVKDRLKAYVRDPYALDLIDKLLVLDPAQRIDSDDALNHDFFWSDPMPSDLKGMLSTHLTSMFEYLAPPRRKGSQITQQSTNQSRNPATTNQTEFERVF
T2 sequence (O60563 whole entry partner, species assumed): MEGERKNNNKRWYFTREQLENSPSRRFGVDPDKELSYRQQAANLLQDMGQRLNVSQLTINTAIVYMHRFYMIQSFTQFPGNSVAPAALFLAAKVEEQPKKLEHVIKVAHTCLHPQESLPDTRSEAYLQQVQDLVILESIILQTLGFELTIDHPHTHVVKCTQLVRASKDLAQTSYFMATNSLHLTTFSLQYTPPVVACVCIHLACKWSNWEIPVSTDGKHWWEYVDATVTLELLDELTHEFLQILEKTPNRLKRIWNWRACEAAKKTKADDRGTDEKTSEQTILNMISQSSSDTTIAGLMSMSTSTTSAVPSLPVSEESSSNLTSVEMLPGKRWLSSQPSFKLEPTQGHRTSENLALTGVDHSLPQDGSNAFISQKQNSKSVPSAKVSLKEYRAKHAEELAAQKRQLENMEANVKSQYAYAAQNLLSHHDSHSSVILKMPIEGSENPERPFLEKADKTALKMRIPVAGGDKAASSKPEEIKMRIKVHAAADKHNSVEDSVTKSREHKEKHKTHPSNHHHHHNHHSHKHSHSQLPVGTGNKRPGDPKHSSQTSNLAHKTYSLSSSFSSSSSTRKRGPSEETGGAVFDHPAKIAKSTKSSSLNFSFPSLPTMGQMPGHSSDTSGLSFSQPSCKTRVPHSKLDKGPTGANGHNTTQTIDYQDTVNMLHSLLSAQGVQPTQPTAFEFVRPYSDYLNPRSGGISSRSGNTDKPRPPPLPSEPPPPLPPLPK

As for `CCC(CO)Nc1nc(NCc2cccc(OC)c2O)c2ncn(C(C)C)c2n1` (racemic) [Compound 128, (RS)-2-({6-[(2-hydroxy-3-methoxybenzyl)amino]-9-isopropyl-9-H-purin-2-yl}amino)butan-1-ol], the IC50 (in general, the midpoint of a concentration-inhibition curve) in data set [1] was 5.9 µM; on CDK2/cyclin E (kinase inhibitory activity, 15 μM ATP, histone substrate), 0.07 µM; against CDK9/cyclin T, 0.04 µM; in data set [2] (Homo sapiens, MCF7, read-out: Cytotoxic activity IC50 (μM) MCF7), 5 µM; in data set [3], 15.5 µM. Besides, the “inhibition of kinase activity (FIG. 1)” value against CDK2/cyclin E (CDK2/cyclin E) was “inhibition of the CDK2/cyclin E kinase activity”. This compound also returned a mean survival time with A549 lung adenocarcinoma (Days 1-3 and 7-9) of 39.1 days. Also, the tolerability result with A549 lung adenocarcinoma (Days 1-3 and 7-9) is “good tolerability”. Besides, the tumor volume result with A549 lung adenocarcinoma (Days 1-3 and 7-9, vs vehicle, P=0.0506) was “significantly smaller tumors”. Besides, the “body weight of treated animals” value in the data set with A549 lung adenocarcinoma (significant at Day 52 only) is on record as “only slight reduction the body weight”. Also, the “number of viable cells (antiproliferative activity)” value in data set [2] (MCF7, 72 h) is listed as “significantly reduces the number of living cells”. Besides, the “drug concentration causing fragmentation of PARP-1, permissive versus restrictive temperature” value in the data set with p53 in RPMI-8226 cells (RPMI-8226 cells) is recorded as “about two-fold lower drug concentrations”. In the data set on p53 in RPMI-8226 cells (RPMI-8226 cells at permissive (30° C.) temperature), the “level of wild-type p53 protein” value is given as “caused accumulation of wild-type p53 protein”. Also, the “level of mutant p53” value in the data set with p53 in RPMI-8226 cells (RPMI-8226 cells at restrictive (37° C.) temperature) was “did not change the levels of mutant p53”. The “expression of anti-apoptotic protein Mcl-1” value with p53 in RPMI-8226 cells (RPMI-8226 cells, 30° C. versus restrictive temperature) was “suppressed more efficiently at 30 °C”.
